The source of these data is patent US20240124412A1, “IKAROS ZINC FINGER FAMILY DEGRADERS AND USES THEREOF” (Gilead Sciences, Inc., priority 2021, published 2024).

The structures appear in SMILES notation.

One assay concerns the target T1, IKZF1 (Homo sapiens, UniProt Q13422+Q96SW2).
T1 construct: expressed in transfected cells
As to the kind of experiment: HiBiT protein tagging assay, in vitro IKZF1 degradation (HEK293). The conditions noted are these: HEK293, 18-24 hr incubation, normalized to DMSO control; for Dmax: read-out: IKZF1 Dmax (maximum degradation at the highest concentration tested); for DC50: read-out: IKZF1 EC50. In kind it is cell-based. As for the experimental part:
(§1) In vitro degradation of IKZF1 and IKZF2 was measured using HiBiT protein tagging and detection technology (Promega).
(§2) HiBiT technology (Promega) was used to develop the quantitative assays to measure the cellular IKZFs level by tagging an 11 amino acid HiBit peptides VSGWRLFKKIS (SEQ ID NO:1) to the protein of interest. Reporter plasmids were generated by fusing a linker sequence (GSSGGSSG; SEQ ID NO:2) followed by the HiBiT tag at the C terminus of IKZF1 and IKZF2. The fusion fragments were subsequently cloned into pcDNA5 pcDNA™5/FRT/TO plasmids (Thermo Fisher, cat #V652020) downstream of the Tetracycline operator. The resulting plasmids were co-transfected with pOG44 Flp-Recombinase Expression Vector (Thermo Fisher, cat #V600520) into Flp-In™ T-REx HEK293 line (Thermo Fisher, cat #R78077) and a stable cell pool was selected by adding 100 μg/ml of Hygromycin (Thermo Fisher, cat #10687010). The reporter cell enabled Tet-On inducible reporter expression from a single copy of the integrated gene.
(§3) On Day 1, Cells were grown to ˜80% confluency in TC medium (DMEM Glutamax (Gibco10569), 10% Tet free FBS (Takara 631106), and PenStrep Glutamin (Gibco 10378)) in tissue culture flasks. Doxycycline was then added to a final concentration of 1 μg/ml to induce reporter expression at 37° C. overnight.
(§4) On Day 2, 125 nL of serially-diluted solution of testing compounds were dispensed into 384-well white solid assay plates via ECHO acoustic liquid handler. Cells were lifted by 0.25% Trypsin (Gibco 25200) then pelleted by centrifugation (Beckman Avanti J-E) at 500×g for 5 min. Cell pellets were resuspended in TC medium at the concentration of 3e5/mL and 25 μL of cell suspension were added into each well of compound-spotted plates. The plates were returned to a 37° C. incubator overnight (18-24 hr).
(§5) On Day 3, assay plates were removed from the TC incubator and 25 μL of Nano-Glo lytic detection system (Promega, cat #N3030) was added to each well. Plates were incubated at r.t. for 3 min with shaking, and luminescence was read using an Envision reader (Perkin Elmer).
(§6) All raw data was normalized to DMSO control (final concentration: 0.5%) wells as POC and plotted out for EC50 and Dmax (Maximum degradation at the highest concentration tested in the assay).

For the next assay, the target named is T2, IKZF2 (Homo sapiens, UniProt Q96SW2+Q9UKS7).
T2 construct: expressed in transfected cells
T2 sequence (Q9UKS7 1-500 isoform Q9UKS7-2): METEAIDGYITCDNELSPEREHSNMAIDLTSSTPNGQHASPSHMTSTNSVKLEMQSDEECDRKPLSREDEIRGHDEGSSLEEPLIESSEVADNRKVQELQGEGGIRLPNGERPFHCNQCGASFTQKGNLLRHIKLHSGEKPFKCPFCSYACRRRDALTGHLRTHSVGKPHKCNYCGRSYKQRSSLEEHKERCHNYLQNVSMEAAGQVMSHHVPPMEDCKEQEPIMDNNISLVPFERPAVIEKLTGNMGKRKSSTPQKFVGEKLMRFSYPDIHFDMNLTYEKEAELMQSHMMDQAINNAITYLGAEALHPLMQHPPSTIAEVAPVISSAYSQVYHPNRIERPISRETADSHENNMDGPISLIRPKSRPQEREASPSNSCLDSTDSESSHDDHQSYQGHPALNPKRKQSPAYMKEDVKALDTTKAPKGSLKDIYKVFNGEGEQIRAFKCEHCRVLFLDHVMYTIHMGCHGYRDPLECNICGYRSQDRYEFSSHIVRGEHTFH
T2 sequence (Q96SW2 whole entry): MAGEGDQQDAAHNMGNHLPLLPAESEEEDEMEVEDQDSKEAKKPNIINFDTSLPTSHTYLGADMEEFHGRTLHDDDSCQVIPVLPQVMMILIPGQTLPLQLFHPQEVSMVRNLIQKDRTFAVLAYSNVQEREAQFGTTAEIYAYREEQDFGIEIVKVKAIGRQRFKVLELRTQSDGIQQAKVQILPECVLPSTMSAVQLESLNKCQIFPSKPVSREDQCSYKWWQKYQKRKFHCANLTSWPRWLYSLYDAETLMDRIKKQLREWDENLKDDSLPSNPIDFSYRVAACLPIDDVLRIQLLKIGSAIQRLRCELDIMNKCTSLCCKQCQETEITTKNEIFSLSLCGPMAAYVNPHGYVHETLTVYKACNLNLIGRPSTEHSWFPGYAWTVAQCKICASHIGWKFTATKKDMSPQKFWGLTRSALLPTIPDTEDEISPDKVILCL
T2 sequence (Q16531 whole entry partner): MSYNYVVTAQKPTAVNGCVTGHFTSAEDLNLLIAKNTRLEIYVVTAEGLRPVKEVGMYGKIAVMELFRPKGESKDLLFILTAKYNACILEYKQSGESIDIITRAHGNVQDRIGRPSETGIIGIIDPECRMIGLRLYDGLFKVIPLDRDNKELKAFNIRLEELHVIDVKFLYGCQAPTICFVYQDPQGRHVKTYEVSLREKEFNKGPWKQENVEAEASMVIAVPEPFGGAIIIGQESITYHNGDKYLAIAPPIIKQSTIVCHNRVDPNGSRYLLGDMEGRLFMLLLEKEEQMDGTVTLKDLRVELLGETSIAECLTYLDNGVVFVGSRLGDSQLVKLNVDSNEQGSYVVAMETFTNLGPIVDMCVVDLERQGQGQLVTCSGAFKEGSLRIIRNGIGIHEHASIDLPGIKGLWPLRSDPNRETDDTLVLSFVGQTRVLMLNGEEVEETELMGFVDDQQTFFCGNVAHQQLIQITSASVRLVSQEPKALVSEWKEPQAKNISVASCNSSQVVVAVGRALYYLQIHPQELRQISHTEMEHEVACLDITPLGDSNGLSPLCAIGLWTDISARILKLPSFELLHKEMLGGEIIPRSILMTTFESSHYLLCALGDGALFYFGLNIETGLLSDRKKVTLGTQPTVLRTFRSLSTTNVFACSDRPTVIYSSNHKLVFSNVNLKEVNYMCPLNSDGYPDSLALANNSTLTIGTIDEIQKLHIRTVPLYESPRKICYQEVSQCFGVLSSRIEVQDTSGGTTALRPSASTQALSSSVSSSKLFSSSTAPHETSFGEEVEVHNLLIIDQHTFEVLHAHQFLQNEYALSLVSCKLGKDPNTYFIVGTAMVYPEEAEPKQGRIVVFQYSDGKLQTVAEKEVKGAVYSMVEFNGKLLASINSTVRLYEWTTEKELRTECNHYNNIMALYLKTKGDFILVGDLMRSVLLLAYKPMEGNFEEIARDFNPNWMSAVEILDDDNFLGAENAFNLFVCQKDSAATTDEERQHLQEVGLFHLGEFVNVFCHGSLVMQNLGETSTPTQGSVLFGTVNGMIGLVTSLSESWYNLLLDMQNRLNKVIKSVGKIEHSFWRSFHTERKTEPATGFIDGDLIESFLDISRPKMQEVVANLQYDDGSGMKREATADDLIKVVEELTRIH
As to the kind of experiment: HiBiT protein tagging assay, in vitro IKZF2 degradation (HEK293). Type of assay: cell-based. As to conditions: HEK293, 18-24 hr incubation, normalized to DMSO control; for Dmax: HEK293, HiBiT assay, read-out: IKZF2 Dmax (maximum degradation at the highest concentration tested); for DC50: HiBiT assay, read-out: IKZF2 EC50. The method, then: as §1, §2, §3, §4, §5, §6
(In general: The HiBiT peptide binds its large partner to form an active luciferase.)

T1 sequence (Q13422 whole entry): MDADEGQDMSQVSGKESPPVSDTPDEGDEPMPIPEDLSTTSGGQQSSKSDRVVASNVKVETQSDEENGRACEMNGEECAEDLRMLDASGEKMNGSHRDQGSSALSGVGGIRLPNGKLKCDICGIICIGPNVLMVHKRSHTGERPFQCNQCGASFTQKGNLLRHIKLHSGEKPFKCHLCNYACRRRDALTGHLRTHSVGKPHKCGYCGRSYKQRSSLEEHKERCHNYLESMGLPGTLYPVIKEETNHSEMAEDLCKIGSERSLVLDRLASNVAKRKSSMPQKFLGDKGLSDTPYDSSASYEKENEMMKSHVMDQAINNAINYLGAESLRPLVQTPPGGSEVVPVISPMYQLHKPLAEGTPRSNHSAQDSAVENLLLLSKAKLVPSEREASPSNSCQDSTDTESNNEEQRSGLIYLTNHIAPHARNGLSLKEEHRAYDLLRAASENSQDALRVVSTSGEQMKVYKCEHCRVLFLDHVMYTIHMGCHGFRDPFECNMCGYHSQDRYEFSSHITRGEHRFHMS
T1 sequence (Q96SW2 whole entry): as the sequence (Q96SW2 whole entry) above
T1 sequence (Q16531 whole entry partner): as the sequence (Q16531 whole entry partner) above

Turning to `O=C1CCC(N2Cc3cc(CN[C@@H]4CCCC[C@@H]4CO)ccc3C2=O)C(=O)N1` (stereo partly drawn) [Example 34, 3-(5-((((1R,2S)-2-(hydroxymethyl)cyclohexyl)amino)methyl)-1-oxoisoindolin-2-yl)piperidine-2,6-dione], on IKZF1, the Dmax is 20% and the DC50 stood at 384 nM. In addition, on IKZF2, the Dmax came to 70% and the DC50 was found to be 657 nM.
On to `C[C@H]1CCCC[C@@H]1NCc1ccc2c(c1)CN(C1CCC(=O)NC1=O)C2=O` (some centres unmarked) [Example 102], for which, at IKZF1, the Dmax was 23% and the DC50 turned out to be 164 nM. At IKZF2, the Dmax was determined as 69% and the DC50 was 220 nM.
Take `O=C1CCC(N2Cc3cc(CN[C@@H]4CCCN(Cc5ccccn5)C4)ccc3C2=O)C(=O)N1` (stereo partly drawn) [Example 130, 3-(1-oxo-5-((((R)-1-(pyridin-2-ylmethyl)piperidin-3-yl)amino)methyl)isoindolin-2-yl)piperidine-2,6-dione]: on IKZF1, the Dmax turned out to be 97% and the DC50 worked out at 48 nM. Also, at IKZF2, the Dmax was found to be 97% and the DC50 is 138 nM.
`C[C@@H]1[C@H]2C[C@@H](C[C@H]1NCc1ccc3c(c1)CN(C1CCC(=O)NC1=O)C3=O)C2(C)C` (some centres unmarked) [Example 139]: the DC50 at IKZF1 was over 1000 nM. Besides, on IKZF2, the Dmax was 26% and the DC50 came to 109 nM.
For the compound `O=C1CCC(N2Cc3cc(CNC45CCC(CC4)C5)ccc3C2=O)C(=O)N1` (centres unmarked) [Example 141], on IKZF1, the Dmax was 32% and the DC50 was found to be 121 nM. For the same compound, on IKZF2, the Dmax turned out to be 93% and the DC50 was 37 nM.
As to `O=C1CCC(N2Cc3cc(CNC4CCOCC4)ccc3C2=O)C(=O)N1` (centres unmarked) [Example 6, 3-(1-oxo-5-(((tetrahydro-2H-pyran-4-yl)amino)methyl)isoindolin-2-yl)piperidine-2,6-dione], on IKZF1, the Dmax is 92% and the DC50 was 148 nM. Besides, on IKZF2, the Dmax was determined as 78% and the DC50 was determined as 181 nM.
For the compound `O=C1CCC(N2Cc3cc(CNC4CCN(C(=O)c5ccccc5)CC4)ccc3C2=O)C(=O)N1` (centres unmarked) [Example 57], the results for the Dmax at IKZF1 and on IKZF2 were 77% and 96%, respectively. Further, the DC50 worked out at 246 nM at IKZF1 and 1300 nM at IKZF2.
As for `N#CC1CCCC(NCc2ccc3c(c2)CN(C2CCC(=O)NC2=O)C3=O)C1` (stereo not drawn) [Example 93, (1,3-trans)-3-(((2-(2,6-dioxopiperidin-3-yl)-1-oxoisoindolin-5-yl)methyl)amino)cyclohexane-1-carbonitrile], the Dmax at IKZF1 came to 29%; at IKZF2, 59%. The DC50 at IKZF1 stood at 252 nM; on IKZF2 it was 26 nM.
The like results for `O=C1CCC(N2Cc3cc(CN[C@@H]4CCCC[C@H]4Cc4ccccc4)ccc3C2=O)C(=O)N1` (some centres unmarked) [Example 67] were, in that order, 73%, 75%, 46 nM and 160 nM.
As to `C[C@]1(NCc2ccc3c(c2)CN(C2CCC(=O)NC2=O)C3=O)CCCN(Cc2ccccc2)C1` (stereo partly drawn) [Example 155, 3-(5-((((S)-1-benzyl-3-methylpiperidin-3-yl)amino)methyl)-1-oxoisoindolin-2-yl)piperidine-2,6-dione], at IKZF1, the Dmax came to 61% and the DC50 was 122 nM. Moreover, on IKZF2, the Dmax was 87% and the DC50 was determined as 106 nM.
Take `COC[C@@H]1CCCC[C@@H]1NCc1ccc2c(c1)CN(C1CCC(=O)NC1=O)C2=O` (stereo partly drawn) [Example 158, 3-(5-((((1S,2R)-2-(methoxymethyl)cyclohexyl)amino)methyl)-1-oxoisoindolin-2-yl)piperidine-2,6-dione]: on IKZF1, the Dmax was 85% and the DC50 amounted to 90 nM. At IKZF2, the Dmax amounted to 93% and the DC50 was determined as 46 nM.
As to `O=C1CCC(N2Cc3cc(CN[C@@H]4CCCN(Cc5ccc(Cl)cc5)C4)ccc3C2=O)C(=O)N1` (stereo partly drawn) [Example 100, 3-(5-((((R)-1-(4-chlorobenzyl)piperidin-3-yl)amino)methyl)-1-oxoisoindolin-2-yl)piperidine-2,6-dione], the figures for the Dmax at IKZF1 and at IKZF2 were 98% and 97%, respectively. For the same compound, the DC50 at IKZF1 worked out at 1 nM; on IKZF2, 6 nM.
The matching figures for `CC1(c2ccccc2)CCC(NCc2ccc3c(c2)CN(C2CCC(=O)NC2=O)C3=O)CC1` (centres unmarked) [Example 103, 3-(5-(((4-methyl-4-phenylcyclohexyl)amino)methyl)-1-oxoisoindolin-2-yl)piperidine-2,6-dione]: 97%, 91%, 3 nM and 23 nM.
The matching figures for `O=C1CCC(N2Cc3cc(CN[C@H]4CC[C@H](C(F)(F)F)CC4)ccc3C2=O)C(=O)N1` (some centres unmarked) [Example 77]: 59%, 74%, 144 nM and 171 nM.
Consider `NC(=O)C1CCCC(NCc2ccc3c(c2)CN(C2CCC(=O)NC2=O)C3=O)C1` (stereo not drawn) [Example 96, (1,3-cis)-3-(((2-(2,6-dioxopiperidin-3-yl)-1-oxoisoindolin-5-yl)methyl)amino)cyclohexane-1-carboxamide], for which, on IKZF1, the Dmax was determined as 66% and the DC50 came to 3800 nM. At IKZF2, the Dmax was determined as 61% and the DC50 was 3800 nM.
Turning to `O=C1CCC(N2Cc3cc(CN[C@@H]4CCCN(CCc5ccccc5)C4)ccc3C2=O)C(=O)N1` (stereo partly drawn) [Example 29, 3-(1-oxo-5-((((R)-1-phenethylpiperidin-3-yl)amino)methyl)isoindolin-2-yl)piperidine-2,6-dione], on IKZF1, the Dmax turned out to be 58% and the DC50 stood at 102 nM. On IKZF2, the Dmax stood at 20% and the DC50 was determined as 665 nM.
Consider `CO[C@H]1CC[C@@H](NCc2ccc3c(c2)CN(C2CCC(=O)NC2=O)C3=O)CC1` (some centres unmarked) [Example 86], for which, on IKZF1, the Dmax was 73% and the DC50 was 70 nM. At IKZF2, the Dmax stood at 83% and the DC50 amounted to 123 nM.
The like results for `O=C1CCC(N2Cc3cc(CN[C@@H]4CCC[C@H](OCc5ccccc5)C4)ccc3C2=O)C(=O)N1` (some centres unmarked) [Example 112] were, in that order, 95%, 7 nM, 90% and 75 nM.
In the case of `CC[C@@H]1CCCC[C@H]1NCc1ccc2c(c1)CN(C1CCC(=O)NC1=O)C2=O` (some centres unmarked) [Example 149], at IKZF1, the DC50 is over 1000 nM. Also, at IKZF2, the Dmax turned out to be 35% and the DC50 amounted to 115 nM.
Turning to `O=C1CCC(N2Cc3cc(CN[C@@H]4CCC[C@H]([C@@H](O)c5ccccc5)C4)ccc3C2=O)C(=O)N1` (some centres unmarked) [Example 135], the values for the Dmax at IKZF1 and on IKZF2 were 92% and 94%, respectively. For the same compound, the DC50 on IKZF1 was 95 nM; at IKZF2, 231 nM.
As for `O=C1CCC(N2Cc3cc(CNC4CC5CNC4C5)ccc3C2=O)C(=O)N1` (stereo not drawn) [Example 98, 3-(5-((((1,4,6-cis)-2-azabicyclo[2.2.1]heptan-6-yl)amino)methyl)-1-oxoisoindolin-2-yl)piperidine-2,6-dione], at IKZF1, the Dmax was determined as 22% and the DC50 came out at 1500 nM. Besides, at IKZF2, the Dmax is 39% and the DC50 was 1800 nM.
As to `O=C1CCC(N2Cc3cc(CN[C@@H]4C[C@H](F)CN(Cc5ccccc5)C4)ccc3C2=O)C(=O)N1` (some centres unmarked) [Example 45], on IKZF1, the Dmax is 93% and the DC50 was determined as 30 nM. At IKZF2, the Dmax was 84% and the DC50 turned out to be 182 nM.
